According to patent US10717758B2, “D-amino acid compounds for liver disease” (priority 2012, dated 2020):

How the values were obtained:
HCV genotype 1b replicon = assay: HCV replicon assay; format: cell-based; settings: Hepatitis C virus, 72 h, Zluc (Huh-7-derived) cells, luciferase reporter, 72 hours; read-out: HCV Replicon EC50
Procedure: Huh-7-derived cell line (Zluc) that harbors an HCV genotype 1b replicon and a luciferase reporter gene was grown in Dulbecco's Modified Eagle Medium (DMEM) supplemented with 10% fetal bovine serum, 2 mM GlutaMAX, 1% MEM nonessential amino acids, 100 IU/mL penicillin, 100 μg/mL streptomycin, and 0.5 mg/mL Geneticin® (G418). For dose response testing the cells were seeded in 96-well plates at 7.5×10^3 cells per well in a volume of 50 μL, and incubated at 37° C./5% CO2. Drug solutions were made up freshly in Huh-7 media as 2× stocks. Ten additional 5-fold dilutions were prepared from these stocks in DMEM without G418. At least three hours after Zluc cells were seeded, drug treatment was initiated by adding 50 μL of drug dilutions to the plates in duplicate. Final concentrations of drug ranged from 100 μM to […]. Cells were then incubated at 37° C./5% CO2. Alternatively, compounds were tested at two concentrations (1 μM and 10 μM). […] For this, media was removed from the plates via gentle tapping. Fifty microliters of ONE-glo luciferase assay reagent was added to each well. The plates were shaken gently for 3 min at room temperature and luminescence was measured on a Victor^3 V 1420 multilabel counter (Perkin Elmer) with a 1 second read time using a 700 nm cut-off filter. The EC50 values were calculated from dose response curves from the resulting best-fit equations determined by Microsoft Excel and XLfit 4.1 software. When screening at two fixed concentrations, the results were expressed as % inhibition at 1 μM and 10 μM.

Zluc cells = assay: Cytotoxicity evaluation in Zluc cells (CellTiter-Blue); format: cell-based, human; settings: read-out: HCV Replicon CC50
Procedure: For cytotoxicity evaluation, Zluc cells were treated with compound as described herein, and cell viability was monitored using the CellTiter-Blue Cell Viability Assay (Promega) by adding 20 μL of the assay solution to each well. The plates were then incubated at 37° C./5% CO2 for at least 3 hours.

Huh-7 cells = assay: Release of active metabolite in Huh-7 cells; format: in vitro ADME, human
Procedure: Huh-7 cells were plated in 1 mL culture medium (DMEM, containing glucose, L-glutamine and sodium pyruvate, 10% FBS, 100 IU/mL penicillin, 100 μg/mL streptomycin, 2 mM GlutaMAX, 1% MEM non-essential amino acids) at the concentration 0.8, 0.4 and 0.2 million cells per well on 6 well plates for 24, 48 and 72 hr treatment, respectively. Plated cells were incubated overnight at 37° C. in an incubator.
The following morning test compound was diluted to 20 μM from a stock solution in DMSO in fresh culture medium pre-warmed to 37° C. and 1 mL of the solution/well was added to cells. A final medium volume per well was 2.0 mL, test compound concentration in well was 10 μM and final DMSO concentration was 0.1%.
After 24, 48 or 72 hr, the medium was carefully removed and cell monolayers were washed twice with 2 mL ice-cold PBS per well. Following the last wash, all PBS was carefully removed and 1.0 mL of extraction solution (ice-cold 70% methanol) added. The plate was tightly covered with Parafilm, plastic plate cover and Parafilm again and an intracellular content was extracted at −20° C. for 24 hr.
After 24 hr the extracts were transferred into polypropylene microfuge tubes and dry on a refrigerated centrivap concentrator. Dry residues were reconstituted in 250 μL of HPLC-grade water and centrifuged at 16,000×g for 10 min. Aliquots (100 μL each) of the supernatants were transferred into a 96 well plate and internal standard (4 ng/mL final concentration) was added as the internal standard (IS) for LC-MS/MS analysis.

fresh human hepatocytes = assay: Release of active metabolite in primary hepatocytes (human); format: in vitro ADME; settings: 10 μM
Procedure: (§1) Plates of fresh human and mouse hepatocytes were obtained on ice. The medium was removed and replaced with hepatocyte culture medium (William's E supplemented with penicillin-streptomycin, 1% L-glutamine, 1% insulin-transferrin-selenium and 0.1 μM Dexamethasone (Invitrogen) or with Invitro GRO HI medium complemented with Torpedo antibiotics (Celsis)). Cells were left overnight in an incubator at 37° C. to acclimatize to culture and the medium.
Hepatocyte incubations were conducted at a final volume of 0.5 mL hepatocyte culture medium/well (0.8 million cells/well for human and 0.5 million cells/well for mouse; 12 well plate no overlay, collagen coat). Culture medium from overnight incubation of cells was removed and replaced with fresh medium, pre-warmed to 37° C., containing 10 μM of test compound from a stock solution in DMSO (final DMSO concentration was 0.1%). At each specific time point, incubation medium was removed and cell monolayers were carefully washed two times with ice-cold PBS. Following the last wash, all PBS was carefully removed and 1.0 mL of extraction solution (ice-cold 70% methanol/30% water) added. Cells were scraped off and suspended in the extraction solution, transferred to 2 mL polypropylene microfuge tubes and intracellular contents extracted overnight at −20° C. […]

fresh mouse hepatocyte = assay: Release of active metabolite in primary hepatocytes (mouse); format: in vitro ADME; settings: 10 μM
Procedure: as §1
Hepatocyte incubations were conducted at a final volume of 0.5 mL hepatocyte culture medium/well (0.8 million cells/well for human and 0.5 million cells/well for mouse; 12 well plate no overlay, collagen coat). Culture medium from overnight incubation of cells was removed and replaced with fresh medium, pre-warmed to 37° C., containing 10 μM of test compound from a stock solution in DMSO (final DMSO concentration was 0.1%). At each specific time point, incubation medium was removed and cell monolayers were carefully washed two times with ice-cold PBS. Following the last wash, all PBS was carefully removed and 1.0 mL of extraction solution (ice-cold 70% methanol/30% water) added. Cells were scraped off and suspended in the extraction solution, transferred to 2 mL polypropylene microfuge tubes and intracellular contents extracted overnight at −20° C.
After the overnight treatment the cellular extracts were prepared by centrifugation at 16,000×g for 10 min to remove cellular debris. The remaining sample was then dried using a refrigerated centrivap concentrator. Dry extracts were reconstituted in 1000 μL of HPLC-grade water and centrifuged at 16,000×g for 10 min. Aliquots (100 μL each) of the supernatant were transferred into a 96 well plate and internal standard (4 ng/mL final concentration) was added as the internal standard (IS) for LC-MS/MS analysis.
The incubation time points were 6, 24 and 48 hours for human hepatocytes and 1, 4, 8, 12 and 24 hours for mouse hepatocytes.

[1] = Plasma and liver PK after single oral dose (Example 4C); format: in vivo, CD-1 mice; settings: at 1 μmol/kg; single oral dose 10 mg/kg for 804a or 25 mg/kg for 804b
Procedure: Plasma samples were analyzed for 2′-methyl-2′-fluorouridine (2′-Me-2′-F-U) by LC-MS/MS. The internal standard (IS) was D3-2′-F-2′-Me-G. For protein precipitation and extraction, each plasma sample (50 μL) was treated with 500 μL of 0.2% formic acid in acetonitrile and 20 μL of the internal standard working solution. After vortexing and centrifugation, 500 μL of the sample extracts were transferred to a new plate, dried under N2 at ˜28° C. and reconstituted with 75 μL of 0.2% FA in water. The extracts were chromatographed on an Aquasil C18 column using a gradient system of 0.2% formic acid in water and acetonitrile. The analytes were detected and quantified by tandem mass spectrometry in positive ion mode on an MDS Sciex API5000 equipped with a Turbo Ionspray® interface. The calibration range was 0.500 (LLOQ) to 200 ng/mL in mouse plasma. The corresponding range for molar units is 1.92 to 769 pmol/mL.
Liver samples were analyzed for the active species 2′-methyl-2′-fluorouridine triphosphate (2′-Me-2′-F—U TP) by LC-MS/MS. […] Internal standard solution was added to the homogenate followed by neutralization with 20% ammonium hydroxide solution and addition of 500 μL 1% formic acid. The tissue samples were extracted by weak anion exchange solid phase extraction (SPE). […]

cathepsin A (CatA) = target: T1, cathepsin A (CatA) (Homo sapiens, UniProt P10619); assay: Hydrolysis of prodrugs by Cathepsin A; format: in vitro ADME
T1 sequence (P10619 29-326 limits assumed): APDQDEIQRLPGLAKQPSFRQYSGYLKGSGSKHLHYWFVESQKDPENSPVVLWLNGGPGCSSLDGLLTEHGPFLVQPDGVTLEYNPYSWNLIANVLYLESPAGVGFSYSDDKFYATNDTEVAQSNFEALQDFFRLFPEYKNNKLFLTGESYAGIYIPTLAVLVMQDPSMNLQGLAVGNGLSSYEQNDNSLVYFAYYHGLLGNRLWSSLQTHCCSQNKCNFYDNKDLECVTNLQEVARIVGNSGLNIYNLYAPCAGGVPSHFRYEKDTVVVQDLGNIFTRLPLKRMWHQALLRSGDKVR
T1 sequence (P10619 327-480 limits assumed): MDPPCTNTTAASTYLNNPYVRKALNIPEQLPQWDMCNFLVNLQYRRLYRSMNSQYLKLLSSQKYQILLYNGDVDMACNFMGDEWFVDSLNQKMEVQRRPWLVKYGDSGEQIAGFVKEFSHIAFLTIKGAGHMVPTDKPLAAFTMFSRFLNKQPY
Procedure: CatA, cathepsin L (CatL) and CES1 were purchased from R & D Systems (Minneapolis, Minn.). Prior to the enzymatic hydrolysis reactions, CatA was activated according to the manufacturer's instruction. Briefly, CatA (0.05 μg/μL) was incubated with CatL (0.005 μg/μL) for 30 min at 37° C. in 25 mM MES pH 6.0 containing 5 mM DTT. The reaction was stopped by addition of the CatL specific inhibitor E64 (10 μM).
The CatA assay was performed at 37° C. The reaction mixture contained 25 mM MES buffer pH 6.0, 100 mM NaCl, 4 mM DTT and 100 μM of the compound. The reaction was started by addition of the activated CatA enzyme to a final concentration of 0.005 μg/μL. […] Reactions were stopped by mixing the sample with an equal volume of ice-cold methanol, and were loaded on a HPLC for analysis.

[2] = Liver TP formation and liver targeting in vivo (Example 6, Table 7); parameters: species or system mice and monkey
Source text: The in vitro antiviral inactivity of Z4 and Z2 is thought to reflect an inability of Huh-7 replicon cells to metabolize the prodrug moiety.

Compound	EC50 (HCV genotype 1b replicon) [µM]	CC50 (Zluc cells) [µM]	Huh-7 TP AUC (Huh-7 cells; 10 μM test compound) [pmol.hr/mill cells]	Huh-7 TP Cmax (Huh-7 cells; 10 μM test compound) [pmol/mill cells]	FHH TP AUC (fresh human hepatocytes) [pmol.hr/mill cells]	FHH TP Cmax (fresh human hepatocytes) [pmol/mill cells]	MsH AUC (fresh mouse hepatocyte) [pmol.hr/mill cells]	MsH Cmax (fresh mouse hepatocyte) [pmol/mill cells]	Ms Plasma 2′-Me-2′-F-U AUC [1] [M·s]	Huh-7 AUC0-72 (Huh-7 cells; Table 7) [pmol*hr/10^6cells]	Hydrolysis by CatA (cathepsin A (CatA))	CatA hydrolysis (cathepsin A (CatA); @ 18 h, 100 μM compound, 37° C., pH 6.0) [%]	Liver TP [2] [pmol·h/g]
CC(C)OC(=O)[C@H](C)NP(=O)(OC[C@H]1O[C@@H](n2ccc(=O)[nH]c2=O)[C@](C)(Cl)[C@@H]1O)Oc1ccccc1 (single isomer, unassigned) [40ii Diastereomer 2]	0.25 to 1	> 50	14544	294	4934	197	1794	87					
CC(C)OC(=O)[C@H](C)N[P@](=O)(OC[C@H]1O[C@@H](n2ccc(=O)[nH]c2=O)[C@](C)(F)[C@@H]1O)Oc1ccccc1 [GS-7977]									0.00115				
CC(C)OC(=O)[C@H](C)N[P@@](=O)(OC[C@H]1O[C@@H](n2ccc(=O)[nH]c2=O)[C@](C)(F)[C@@H]1O)Oc1ccccc1 [PSI-7976, reference compound]									0.00115	6527	hydrolyzed	10	310
